pIC50: −log10 of the molar value.
Test system: 653999-131-R-J2-PDC complex spheroid viability
Assay: Anticancer human tumor 653999-131-R-J2-PDC patient-derived lung adenocarcinoma cell line growth inhibition
Conditions: for pIC50: curve of first compound; for viability, T/C: stronger effect = lower value
How it was run: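 Drug combinations with the LSD1 inhibitor iadademstat tested on tumor cells co-cultured as spheroids with endothelial cells and mesenchymal stem cells. Concentrations descended in half-log increments from clinical Cmax or 10 microM.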

[1] = second compound 0.1 µM, first compound 0.00949 µM
[2] = second compound 0.1 µM, first compound 0.03 µM
[3] = second compound 0.1 µM, first compound 0.0949 µM
[4] = second compound 0.1 µM, first compound 0.3 µM
[5] = second compound 0.316 µM, first compound 0.00949 µM
[6] = second compound 0.316 µM, first compound 0.03 µM
[7] = second compound 0.316 µM, first compound 0.0949 µM
[8] = second compound 0.316 µM, first compound 0.3 µM
[9] = second compound 1 µM, first compound 0.00949 µM
[10] = second compound 1 µM, first compound 0.03 µM
[11] = second compound 1 µM, first compound 0.0949 µM
[12] = second compound 1 µM, first compound 0.3 µM
[13] = second compound 3.16 µM, first compound 0.00949 µM
[14] = second compound 3.16 µM, first compound 0.03 µM
[15] = second compound 3.16 µM, first compound 0.0949 µM
[16] = second compound 3.16 µM, first compound 0.3 µM
[17] = second compound 10 µM, first compound 0.00949 µM
[18] = second compound 10 µM, first compound 0.03 µM
[19] = second compound 10 µM, first compound 0.0949 µM
[20] = second compound 10 µM, first compound 0.3 µM
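Also: spheroids exposed to agents for seven days before readout.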

In the case of `CCN(c1cc(-c2ccc(CN3CCOCC3)cc2)cc(C(=O)NCc2c(C)cc(C)[nH]c2=O)c1C)C1CCOCC1` + NC1CC1c1ccc(-c2cccc(O)c2)cc1, the pIC50 (second compound 0.1 µM) was less than 5.52, the pIC50 (second compound 0.316 µM) was less than 5.52 and the pIC50 (second compound 1 µM) was less than 5.52. It also gave a pIC50 (second compound 3.16 µM) of less than 5.52, a pIC50 (second compound 10 µM) of less than 5.52 and a viability, T/C [1] of 92.9%. For the same compound, the viability, T/C [2] was 104%, the viability, T/C [3] was 97.8% and the viability, T/C [4] was 87.4%. The viability, T/C (second compound 0.1 µM, first compound 0.949 µM) was 94.1%, the viability, T/C (second compound 0.1 µM, first compound 3 µM) was 69.5% and the viability, T/C [5] was 102%. The viability, T/C [6] was 107%, the viability, T/C [7] was 97.8% and the viability, T/C [8] was 80.1%. For the same compound, the viability, T/C (second compound 0.316 µM, first compound 0.949 µM) was 79.3%, the viability, T/C (second compound 0.316 µM, first compound 3 µM) was 69.7% and the viability, T/C [9] was 96.1%. The viability, T/C [10] was 97.5%, the viability, T/C [11] was 89.4% and the viability, T/C [12] was 95.4%. The viability, T/C (second compound 1 µM, first compound 0.949 µM) was 93.6%, the viability, T/C (second compound 1 µM, first compound 3 µM) was 71.8% and the viability, T/C [13] was 108%. It also gave a viability, T/C [14] of 108%, a viability, T/C [15] of 109% and a viability, T/C [16] of 93.8%. It also gave a viability, T/C (second compound 3.16 µM, first compound 0.949 µM) of 89.3%, a viability, T/C (second compound 3.16 µM, first compound 3 µM) of 76.2% and a viability, T/C [17] of 101%. For the same compound, the viability, T/C [18] was 113%, the viability, T/C [19] was 97% and the viability, T/C [20] was 93%. The viability, T/C (second compound 10 µM, first compound 0.949 µM) was 90.4% and the viability, T/C (second compound 10 µM, first compound 3 µM) was 86.7%.

For `Cn1ncnc1C1c2n[nH]c(=O)c3cc(F)cc(c23)NC1c1ccc(F)cc1` (stereo not given) + NC1CC1c1ccc(-c2cccc(O)c2)cc1, the pIC50 (second compound 0.1 µM) was less than 7.00, the pIC50 (second compound 0.316 µM) was less than 7.00 and the pIC50 (second compound 1 µM) was less than 7.00. For the same compound, the pIC50 (second compound 3.16 µM) was less than 7.00, the pIC50 (second compound 10 µM) was less than 7.00 and the viability, T/C (second compound 0.1 µM, first compound 0.000316 µM) was 90.3%. For the same compound, the viability, T/C (second compound 0.1 µM, first compound 0.001 µM) was 95.9%, the viability, T/C (second compound 0.1 µM, first compound 0.00316 µM) was 95% and the viability, T/C (second compound 0.1 µM, first compound 0.01 µM) was 90.7%. The viability, T/C (second compound 0.1 µM, first compound 0.0316 µM) was 84.6%, the viability, T/C (second compound 0.1 µM, first compound 0.1 µM) was 83.4% and the viability, T/C (second compound 0.316 µM, first compound 0.000316 µM) was 92.2%. It also gave a viability, T/C (second compound 0.316 µM, first compound 0.001 µM) of 96.2%, a viability, T/C (second compound 0.316 µM, first compound 0.00316 µM) of 101% and a viability, T/C (second compound 0.316 µM, first compound 0.01 µM) of 91.4%. The viability, T/C (second compound 0.316 µM, first compound 0.0316 µM) was 82.2%, the viability, T/C (second compound 0.316 µM, first compound 0.1 µM) was 80% and the viability, T/C (second compound 1 µM, first compound 0.000316 µM) was 90%. For the same compound, the viability, T/C (second compound 1 µM, first compound 0.001 µM) was 97.4%, the viability, T/C (second compound 1 µM, first compound 0.00316 µM) was 99.8% and the viability, T/C (second compound 1 µM, first compound 0.01 µM) was 90.6%. The viability, T/C (second compound 1 µM, first compound 0.0316 µM) was 75.9%, the viability, T/C (second compound 1 µM, first compound 0.1 µM) was 82.6% and the viability, T/C (second compound 3.16 µM, first compound 0.000316 µM) was 89.7%. The viability, T/C (second compound 3.16 µM, first compound 0.001 µM) was 94.4%, the viability, T/C (second compound 3.16 µM, first compound 0.00316 µM) was 90.3% and the viability, T/C (second compound 3.16 µM, first compound 0.01 µM) was 85.1%. It also gave a viability, T/C (second compound 3.16 µM, first compound 0.0316 µM) of 82.7%, a viability, T/C (second compound 3.16 µM, first compound 0.1 µM) of 80% and a viability, T/C (second compound 10 µM, first compound 0.000316 µM) of 85.5%. The viability, T/C (second compound 10 µM, first compound 0.001 µM) was 88.3%, the viability, T/C (second compound 10 µM, first compound 0.00316 µM) was 94.8% and the viability, T/C (second compound 10 µM, first compound 0.01 µM) was 86.3%. It also gave a viability, T/C (second compound 10 µM, first compound 0.0316 µM) of 82.5% and a viability, T/C (second compound 10 µM, first compound 0.1 µM) of 78.6%.

`Nc1ncn(C2CC(O)C(CO)S2)c(=O)n1` (stereo not given) + NC1CC1c1ccc(-c2cccc(O)c2)cc1 gave a pIC50 (second compound 0.1 µM) of less than 6.52, a pIC50 (second compound 0.316 µM) of less than 6.52 and a pIC50 (second compound 1 µM) of less than 6.52. For the same compound, the pIC50 (second compound 3.16 µM) was less than 6.52, the pIC50 (second compound 10 µM) was less than 6.52 and the viability, T/C (second compound 0.1 µM, first compound 0.000949 µM) was 100%. It also gave a viability, T/C (second compound 0.1 µM, first compound 0.003 µM) of 90.5%, a viability, T/C [1] of 104% and a viability, T/C [2] of 91%. For the same compound, the viability, T/C [3] was 78.1%, the viability, T/C [4] was 64.8% and the viability, T/C (second compound 0.316 µM, first compound 0.000949 µM) was 94.9%. The viability, T/C (second compound 0.316 µM, first compound 0.003 µM) was 100%, the viability, T/C [5] was 77.4% and the viability, T/C [6] was 84.8%. The viability, T/C [7] was 87%, the viability, T/C [8] was 67.6% and the viability, T/C (second compound 1 µM, first compound 0.000949 µM) was 81.8%. It also gave a viability, T/C (second compound 1 µM, first compound 0.003 µM) of 101%, a viability, T/C [9] of 102% and a viability, T/C [10] of 88.8%. For the same compound, the viability, T/C [11] was 80.4%, the viability, T/C [12] was 67.5% and the viability, T/C (second compound 3.16 µM, first compound 0.000949 µM) was 102%. For the same compound, the viability, T/C (second compound 3.16 µM, first compound 0.003 µM) was 94.2%, the viability, T/C [13] was 98.2% and the viability, T/C [14] was 85.1%. For the same compound, the viability, T/C [15] was 93.8%, the viability, T/C [16] was 77% and the viability, T/C (second compound 10 µM, first compound 0.000949 µM) was 94.3%. The viability, T/C (second compound 10 µM, first compound 0.003 µM) was 92.9%, the viability, T/C [17] was 102% and the viability, T/C [18] was 79.6%. It also gave a viability, T/C [19] of 90.3% and a viability, T/C [20] of 74.8%.

From PubChem BioAssay AID1918939 (Molecular Pharmacology Branch, DTP, NCI, 2023)
